This is an account of results in US20240317709A1, “Lysophosphatidic Acid Receptor Antagonists for Breast Cancer Treatment” (Lakehead University, priority 2023, published 2024).

For experiment [1], the system named is histamine release induced by LPA. Conditions: in vivo; literature (ref 15); cited from earlier work.
For the next experiment, the system named is lung fibroblast. Conditions: in vitro; literature (ref 15); cited from earlier work.
For another experiment, the target named is T1, LPAs (Homo sapiens, UniProt Q9UBY5).
T1 sequence (Q9UBY5 1-353): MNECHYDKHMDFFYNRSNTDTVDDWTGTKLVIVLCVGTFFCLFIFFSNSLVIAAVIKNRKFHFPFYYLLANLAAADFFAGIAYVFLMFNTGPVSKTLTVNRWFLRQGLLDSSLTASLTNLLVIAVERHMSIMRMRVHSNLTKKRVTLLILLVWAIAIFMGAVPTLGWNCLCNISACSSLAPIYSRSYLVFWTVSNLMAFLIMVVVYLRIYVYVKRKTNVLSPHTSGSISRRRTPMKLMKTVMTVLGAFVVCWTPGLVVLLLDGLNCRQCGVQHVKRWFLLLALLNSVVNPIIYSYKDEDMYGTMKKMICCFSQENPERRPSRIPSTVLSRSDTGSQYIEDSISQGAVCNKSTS
To be noted: literature value (ref 15); read-out: LPAs IC50 in calcium release assay; cited from earlier work.

For experiment [2], the target named is T2, LPA1 (Homo sapiens, UniProt Q92633). The experiment in a line: in vitro cAMP assay using a CHO cell line overexpressing LPA1 receptor. Type of experiment: cell-based. Set-up: GFP; host or cells: CHO-K1, transiently transfected. A general note: cAMP levels reflect the balance of adenylyl cyclase and phosphodiesterase activity.
Target sequence in this assay (Q92633 whole entry): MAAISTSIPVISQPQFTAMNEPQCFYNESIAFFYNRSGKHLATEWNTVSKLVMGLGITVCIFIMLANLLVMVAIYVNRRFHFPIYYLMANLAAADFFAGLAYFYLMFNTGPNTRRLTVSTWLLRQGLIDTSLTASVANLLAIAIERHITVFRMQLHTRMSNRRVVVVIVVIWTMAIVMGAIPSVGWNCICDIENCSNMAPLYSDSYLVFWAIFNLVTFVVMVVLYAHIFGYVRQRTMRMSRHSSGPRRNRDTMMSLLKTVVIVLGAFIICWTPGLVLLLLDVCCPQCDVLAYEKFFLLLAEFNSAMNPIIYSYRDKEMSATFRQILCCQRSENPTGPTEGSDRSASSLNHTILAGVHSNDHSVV
Experimental: LPA1 receptor activation leads to an inhibition of cAMP production that can be quantified by measuring the luminescence. Compounds prepared as described herein were tested in an in vitro cAMP assay using a CHO cell line overexpressing LPA1 receptor.
The plasmid encoding LPA1-GFP was purchased from OriGene Technologies (Rockville, MD, USA). CHO-K1 cells were seeded onto 96-well plates at a density of 8000 cells/well and then transiently transfected with the plasmid using X-tremeGENE 9 DNA Transfection Reagent (Roche) in antibiotic-free media. Transiently transfected cells were assayed or imaged at 48 h post-transfection.
cAMP levels were measured using cAMP-Glo™ Assay kit (Promega) according to the manufacture's instructions. CHO-K1 cells overexpressing LPA1 were incubated with various concentrations of ⅕ log diluted test compounds, 100 nM forskolin, and 1 uM LPA in induction buffer (1× phosphate-buffered saline with 500 uM isobutyl-1-methylxanthine and 100 μM 4-(3-butoxy-4-methoxybenzyl) imidazolidone) for 30 min at room temperature. Changes in cAMP were measured using BioTek Synergy HTX plate reader.
Experiment [3] concerns the target T2, LPA1. To be noted: literature value (ref 15); read-out: IC50 in calcium release assay (LPA1); cited from earlier work.
Target sequence in this assay (Q92633 whole entry, species assumed): as the sequence (Q92633 whole entry) above

Read-outs that look alike come from different tables or passages of the source.

In general, IC50 refers to the point on the concentration scale where inhibition reaches its midpoint. Usually % inhibition stands for the relative decrease from the control value, in per cent. As for `Cc1nnn(-c2ccc(-c3ccc(C4(C(=O)O)CC4)cc3)cc2)c1NC(=O)O[C@H](C)c1ccccc1` [RO-2], the “histamine release induced by LPA” value in experiment [1] is “ameliorated histamine release induced by LPA in vivo”. Also, the “inhibition of lung fibroblast contraction induced by LPA” value in the experiment on lung fibroblast is “inhibited lung fibroblast proliferation and contraction induced by LPA in vitro”. The “inhibition of lung fibroblast proliferation induced by LPA” value with lung fibroblast was “inhibited lung fibroblast proliferation and contraction induced by LPA in vitro”. In addition, the IC50 on LPAs was greater than 30 µM; on LPA1 [2] (concentration to reverse 50% of the inhibitory effect of 1 μM 18:1 LPA on forskolin-mediated cAMP production, CHO-K1 overexpressing LPA1) it was 0.0183 µM; on LPA1 [3], 0.025 µM. For the same molecule, on LPA1 [2] (cAMP assay, 1 μM LPA, 100 nM forskolin, test concentration not given), the “% inhibition” value came out at 111.6%.
